# Source: patent US20240228443A1, “NOVEL MANUFACTURING METHOD OF D[…] PRECURSORS THEREOF” (GlaxoSmithKline Intellectual Property (No.2) Limited, priority 2021, published 2024)
# Test: Solubility by saturation of the solvent, filtration and determination of concentration in the supernatant
# Type: physicochemical
# Conditions: thermodynamic from solid
# Protocol: The solubility of 5-acetyl-1,3-dicyclohexylpyrimidine-2,4,6(1H,3H,5H)-trione was measured in 29.5% v/v acetic anhydride-acetic acid (a mimic for the solvent composition at the end of Stage 1), acetic acid and water. The solubility was measured by saturation of the solvent with the component, filtration and determination of the component concentration in the supernatant.
smiles,measurement,setting,value
"CC(=O)C1C(=O)N(C2CCCCC2)C(=O)N(C2CCCCC2)C1=O [5-acetyl-1,3-dicyclohexylpyrimidine-2,4,6(1H,3H,5H)-trione]",solubility,"organic solvent or mixture, in 29.5% v/v acetic anhydride-acetic acid at 15° C.",43.7 mg/mL
same,solubility,"organic solvent or mixture, in acetic acid at 20° C.",62.3 mg/mL
same,solubility,in water at 25° C.,< 0.1 mg/mL
